{"source": "PubChem BioAssay AID1259411", "about": "(Chemical Carcinogenesis Research Information System (CCRIS), 2018)", "tested_on": "rodent carcinogenicity bioassays, tumor incidence", "experiment": "CCRIS carcinogenicity studies", "in_short": "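Archive of carcinogenicity, mutagenicity, tumor promotion and tumor inhibition results drawn from journals, NCI reports and other sources, expert-reviewed; covers 1985-2011 and is no longer updated.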", "note": "Activity calls are given as the source filed them. No rule for the calls is given here.", "data": [{"smiles": "CN(C)N=O", "values": [{"measurement": "carcinogen call", "setting": "Species: DUCK, Route: ORAL, Tumor Site: Type of Lesion: LIVER", "result": "active; positive"}, {"measurement": "carcinogen call", "setting": "Species: FISH, Route: ORAL, Tumor Site: Type of Lesion: LIVER", "result": "active; positive"}, {"measurement": "carcinogen call", "setting": "Species: GUINEA PIG, Route: ORAL, Tumor Site: Type of Lesion: LIVER", "result": "active; positive"}, {"measurement": "carcinogen call", "setting": "Species: HAMSTER, Route: ORAL, Tumor Site: Type of Lesion: LIVER", "result": "active; positive"}, {"measurement": "carcinogen call", "setting": "Species: HAMSTER, Route: SUBCUTANEOUS, Tumor Site: Type of Lesion: LIVER, KIDNEY, NASAL CAVITY, Tumor Site: Type of Lesion: LIVER, KIDNEY, NASAL CAVITY", "result": "active; positive"}, {"measurement": "carcinogen call", "setting": "Species: HAMSTER, Strain/Sex: SYRIAN/MALE, Route: INTRATRACHEAL, Dose: 0, 0.05, 0.1 MG IN PHOSPHATE BUFFER 1/WK FOR 15 WK (TOTAL DOSE: 0; 0.75; 0.5 MG) (STUDY DURATION: LIFESPAN), Dose: 0, 0.05, 0.1 MG IN PHOSPHATE BUFFER 1/WK FOR 15 WK (TOTAL DOSE: 0; 0.75; 0.5 MG) (STUDY DURATION: LIFESPAN), Tumor Site: Type of Lesion: LIVER: HEMANGIOSARCOMA, TUMOR", "result": "active; positive"}, {"measurement": "carcinogen call", "setting": "Species: HAMSTER, Strain/Sex: SYRIAN/MALE, Route: INTRATRACHEAL, Dose: 0, 0.5 MG IN PHOSPHATE BUFFER ONCE (STUDY DURATION: LIFESPAN)", "result": "inactive; negative"}, {"measurement": "carcinogen call", "setting": "Species: MOUSE, Route: INHALATION, Tumor Site: Type of Lesion: LIVER, LUNG, KIDNEY, Tumor Site: Type of Lesion: LIVER, LUNG, KIDNEY", "result": "active; positive"}, {"measurement": "carcinogen call", "setting": "Species: MOUSE, Route: INTRAPERITONEAL, Tumor Site: Type of Lesion: LIVER, LUNG, KIDNEY, Tumor Site: Type of Lesion: LIVER, LUNG, KIDNEY", "result": "active; positive"}, {"measurement": "carcinogen call", "setting": "Species: MOUSE, Route: ORAL, Tumor Site: Type of Lesion: LIVER, LUNG, KIDNEY, Tumor Site: Type of Lesion: LIVER, LUNG, KIDNEY", "result": "active; positive"}, {"measurement": "carcinogen call", "setting": "Species: MOUSE, Route: SUBCUTANEOUS, Tumor Site: Type of Lesion: LIVER, LUNG", "result": "active; positive"}, {"measurement": "carcinogen call", "setting": "Species: MOUSE, Strain/Sex: C3H/FEMALE, Route: TRANSPLACENTAL, Dose: 0, 0.1 MMOL IN 0.9% STERILE SALINE (7.4 MG/KG) ON DAY 16 OF GESTATION (STUDY DURATION: LIFETIME), Tumor Site: Type of Lesion: LIVER: CARCINOMA", "result": "active; positive"}, {"measurement": "carcinogen call", "setting": "Species: MOUSE, Strain/Sex: C3H/FEMALE, Route: TRANSPLACENTAL, Dose: 0, 0.1 MMOL IN 0.9% STERILE SALINE (7.4 MG/KG) ON DAY 19 OF GESTATION (STUDY DURATION: LIFETIME), Tumor Site: Type of Lesion: LIVER: CARCINOMA", "result": "active; positive"}, {"measurement": "carcinogen call", "setting": "Species: MOUSE, Strain/Sex: C3H/MALE, Route: TRANSPLACENTAL, Dose: 0, 0.1 MMOL IN 0.9% STERILE SALINE (7.4 MG/KG) ON DAY 16 OF GESTATION (STUDY DURATION: LIFETIME)", "result": "inactive; negative"}, {"measurement": "carcinogen call", "setting": "Species: MOUSE, Strain/Sex: C3H/MALE, Route: TRANSPLACENTAL, Dose: 0, 0.1 MMOL IN 0.9% STERILE SALINE (7.4 MG/KG) ON DAY 19 OF GESTATION (STUDY DURATION: LIFETIME), Tumor Site: Type of Lesion: LIVER: CARCINOMA", "result": "active; positive"}, {"measurement": "carcinogen call", "setting": "Species: MOUSE, Strain/Sex: STRAIN-A/FEMALE, Route: INTRAPERITONEAL, Dose: 0, 5, 20 UMOL TOTAL DOSE ADMINISTERED IN SUBDOSES 3/WK FOR 7 WK (STUDY DURATION: 37 WK), Dose: 0, 5, 20 UMOL TOTAL DOSE ADMINISTERED IN SUBDOSES 3/WK FOR 7 WK (STUDY DURATION: 37 WK), Tumor Site: Type of Lesion: LUNG: TUMOR", "result": "active; positive"}, {"measurement": "carcinogen call", "setting": "Species: RABBIT, Route: ORAL, Tumor Site: Type of Lesion: LIVER", "result": "active; positive"}, {"measurement": "carcinogen call", "setting": "Species: RAT, Route: INHALATION, Tumor Site: Type of Lesion: NASAL CAVITY", "result": "active; positive"}, {"measurement": "carcinogen call", "setting": "Species: RAT, Route: ORAL, Tumor Site: Type of Lesion: LIVER, KIDNEY", "result": "active; positive"}, {"measurement": "carcinogen call", "setting": "Species: RAT, Route: SUBCUTANEOUS, INTRAPERITONEAL, Tumor Site: Type of Lesion: KIDNEY", "result": "active; positive"}, {"measurement": "carcinogen call", "setting": "Species: RAT, Strain/Sex: F344/FEMALE, Route: INTRAVESICULAR, Dose: 0, 2 MG IN 0.2 ML ETHANOL: DEIONIZED WATER (1:3) 2/WK FOR 30 WK (TOTAL DOSE: 1.6 MMOL) (STUDY DURATION: LIFESPAN), Tumor Site: Type of Lesion: KIDNEY: MESENCHYMAL NEOPLASM, LUNG: TUMOR", "result": "active; positive"}, {"measurement": "carcinogen call", "setting": "Species: RAT, Strain/Sex: SPRAGUE-DAWLEY/FEMALE, Route: INHALATION, Dose: 0, 0.04, 0.2, 1 PPM 4-5 HR/D 4 D/WK FOR 207 D (ESTIMATED DAILY UPTAKE OF 0; 10; 40; 180 UG/KG) (STUDY DURATION: 207 D), Dose: 0, 0.04, 0.2, 1 PPM 4-5 HR/D 4 D/WK FOR 207 D (ESTIMATED DAILY UPTAKE OF 0; 10; 40; 180 UG/KG) (STUDY DURATION: 207 D), Tumor Site: Type of Lesion: NASAL CAVITY: TUMOR", "result": "active; positive"}, {"measurement": "carcinogen call", "setting": "Species: RAT, Strain/Sex: WISTAR/FEMALE, Route: INTRAPERITONEAL, Dose: 0, 0.04% IN 0.1-0.2 ML PHYSIOLOGICAL SALINE 1/D FOR D 1-5 OF LIFE (TOTAL DOSE 0.2 MG) (STUDY DURATION: LIFESPAN OR 1 YR), Tumor Site: Type of Lesion: LIVER: HEPATOCELLULAR CARCINOMA, HEPATOMA, CHOLANGIOMA, ANGIOMA, KIDNEY: MESENCHYMAL TUMOR, EPITHELIAL TUMOR", "result": "active; positive"}, {"measurement": "carcinogen call", "setting": "Species: RAT, Strain/Sex: WISTAR/FEMALE, Route: INTRAPERITONEAL, Dose: 0, 0.04% IN 0.1-0.2 ML PHYSIOLOGICAL SALINE 1/D FOR D 1-10 OF LIFE (TOTAL DOSE 0.4 MG) (STUDY DURATION: LIFESPAN OR 1 YR, Tumor Site: Type of Lesion: LIVER: HEPATOCELLULAR CARCINOMA, HEPATOMA, CHOLANGIOMA, ANGIOMA, KIDNEY: MESENCHYMAL TUMOR, EPITHELIAL TUMOR", "result": "active; positive"}, {"measurement": "carcinogen call", "setting": "Species: RAT, Strain/Sex: WISTAR/FEMALE, Route: INTRAPERITONEAL, Dose: 0, 0.04% IN 0.1-0.2 ML PHYSIOLOGICAL SALINE 1/D FOR D 1-20 OF LIFE (TOTAL DOSE 0.5 MG) (STUDY DURATION: LIFESPAN OR 1 YR, Tumor Site: Type of Lesion: LIVER: HEPATOCELLULAR CARCINOMA, HEPATOMA, ANGIOMA, KIDNEY: MESENCHYMAL TUMOR", "result": "active; positive"}, {"measurement": "carcinogen call", "setting": "Species: RAT, Strain/Sex: WISTAR/FEMALE, Route: ORAL, Dose: 0, 0.033, 0.066, 0.132, 0.264, 0.528, 1.056, 1.584, 2.112, 2.640, 3.168, 4.224, 5.280, 6.336, 8.448, 16.896 PPM IN DRINK, Dose: 0, 0.033, 0.066, 0.132, 0.264, 0.528, 1.056, 1.584, 2.112, 2.640, 3.168, 4.224, 5.280, 6.336, 8.448, 16.896 PPM IN DRINK, Tumor Site: Type of Lesion: LIVER: HEPATOCELLULAR CARCINOMA, HEMANGIOMA, BILE DUCT: TUMOR", "result": "active; positive"}, {"measurement": "carcinogen call", "setting": "Species: RAT, Strain/Sex: WISTAR/MALE, Route: INTRAPERITONEAL, Dose: 0, 0.04% IN 0.1-0.2 ML PHYSIOLOGICAL SALINE 1/D FOR D 1-5 OF LIFE (TOTAL DOSE 0.2 MG) (STUDY DURATION: LIFESPAN OR 1 YR), Tumor Site: Type of Lesion: LIVER: HEPATOCELLULAR CARCINOMA, HEPATOMA, CHOLANGIOMA, KIDNEY: MESENCHYMAL TUMOR, EPITHELIAL TUMOR", "result": "active; positive"}, {"measurement": "carcinogen call", "setting": "Species: RAT, Strain/Sex: WISTAR/MALE, Route: INTRAPERITONEAL, Dose: 0, 0.04% IN 0.1-0.2 ML PHYSIOLOGICAL SALINE 1/D FOR D 1-10 OF LIFE (TOTAL DOSE 0.4 MG) (STUDY DURATION: LIFESPAN OR 1 YR, Tumor Site: Type of Lesion: LIVER: HEPATOCELLULAR CARCINOMA, HEPATOMA, CHOLANGIOMA, ANGIOMA, KIDNEY: MESENCHYMAL TUMOR, EPITHELIAL TUMOR", "result": "active; positive"}, {"measurement": "carcinogen call", "setting": "Species: RAT, Strain/Sex: WISTAR/MALE, Route: INTRAPERITONEAL, Dose: 0, 0.04% IN 0.1-0.2 ML PHYSIOLOGICAL SALINE 1/D FOR D 1-20 OF LIFE (TOTAL DOSE 0.5 MG) (STUDY DURATION: LIFESPAN OR 1 YR, Tumor Site: Type of Lesion: LIVER: HEPATOCELLULAR CARCINOMA, HEPATOMA, ANGIOMA, KIDNEY: MESENCHYMAL TUMOR", "result": "active; positive"}, {"measurement": "carcinogen call", "setting": "Species: RAT, Strain/Sex: WISTAR/MALE, Route: ORAL, Dose: 0, 0.033, 0.066, 0.132, 0.264, 0.528, 1.056, 1.584, 2.112, 2.640, 3.168, 4.224, 5.280, 6.336, 8.448, 16.896 PPM IN DRINK, Dose: 0, 0.033, 0.066, 0.132, 0.264, 0.528, 1.056, 1.584, 2.112, 2.640, 3.168, 4.224, 5.280, 6.336, 8.448, 16.896 PPM IN DRINK, Tumor Site: Type of Lesion: LIVER: HEPATOCELLULAR CARCINOMA, HEMANGIOMA, BILE DUCT: TUMOR", "result": "active; positive"}]}]}
